Source: ChEMBL document CHEMBL5584315, “Evaluation of Phenazine Derivatives from the Lichen-Associated Streptomyces flavidovirens as Potent Antineuroinflammatory Agents In Vitro and In Vivo” (J Nat Prod, 2024)
Blank lines part the entries; values can stand above or below the molecule they belong to. Active and inactive are the calls of the source. The rule behind the calls is not given here.

Columns and labels:
BV-2 [1] = test: Antineuroinflammatory activity in LPS induced mouse BV-2 cells assessed as inhibition of NO production pretreated for 3 hrs followed by LPS addition and measured after 21 hrs by griess reagent based assay; assay type: functional, cell-based
[2] = Cytotoxicity against mouse BV-2 cells assessed as cell viability at 40 uM measured after 24 hrs by MTT assay relative to control; assay type: toxicity, cell-based; settings: read-out: Activity
BV-2 [3] = test: Cytotoxicity against mouse BV-2 cells assessed as cell viability at 40 uM measured after 24 hrs by MTT assay; assay type: toxicity, cell-based; settings: bv-2, 24 h
BV-2 [4] = test: Antineuroinflammatory activity in LPS-induced mouse BV-2 cells assessed as reduction in TNF-alpha expression at 10 uM preincubated for 3 hrs followed by LPS stimulation and measured after 21 hrs by ELISA method relative to control; assay type: functional; parameters: scale not given: the % may be the effect or the level left; settings: time 24 hrs
BV-2 [5] = test: Antineuroinflammatory activity in LPS-induced mouse BV-2 cells assessed as reduction in PGE2 cytokine production at 5 uM preincubated for 3 hrs followed by LPS stimulation and measured after 21 hrs by ELISA method relative to control; assay type: functional; parameters: scale not given: the % may be the effect or the level left; settings: time 24 hrs
BV-2 [6] = test: Antineuroinflammatory activity in mouse BV-2 cells assessed as reversal of LPS-induced enlarged cell bodies measured after 24 hrs by microscope based analysis; assay type: functional
[7] = Antioxidant activity assessed as ABTS radical scavenging activity by absorbance based analysis; assay type: functional
[8] = Inhibition of ROS production in LPS-induced mouse BV-2 cells as decrease in intracellular ROS production at 10 uM preincubated for 3 hrs followed by LPS stimulation and measured after 21 hrs by DCFH-DA staining based microscopic analysis relative to control; assay type: functional; settings: time 24 hrs
[9] = Inhibition of ROS production in LPS-induced mouse BV-2 cells as decrease in intracellular ROS production at 20 uM preincubated for 3 hrs followed by LPS stimulation and measured after 21 hrs by DCFH-DA staining based microscopic analysis relative to control; assay type: functional; settings: time 24 hrs
BV-2 [10] = test: Antineuroinflammatory activity in LPS-induced mouse BV-2 cells assessed as reduction in PGE2 cytokine production at 20 uM preincubated for 3 hrs followed by LPS stimulation and measured after 21 hrs by ELISA method relative to control; assay type: functional; parameters: scale not given: the % may be the effect or the level left; settings: time 24 hrs
BV-2 [11] = test: Antineuroinflammatory activity in LPS-induced mouse BV-2 cells assessed as downregulation of keap1 expression at 20 uM preincubated for 3 hrs followed by LPS stimulation and measured after 21 hrs by Western blot analysis relative to control; assay type: functional; settings: time 24 hrs
BV-2 [12] = test: Antineuroinflammatory activity in LPS-induced mouse BV-2 cells assessed as suppression of TAK1 expression at 20 uM preincubated for 3 hrs followed by LPS stimulation and measured after 21 hrs by Western blot analysis (reference value: 225+/-10%); assay type: functional; settings: time 24 hrs
BV-2 [13] = test: Antineuroinflammatory activity in mouse BV-2 cells assessed as reversal of LPS-induced cell thickening measured after 24 hrs by microscope based analysis; assay type: functional
Danio rerio [14] = species: Danio rerio; test: Inhibition of LPS-induced ROS stress in Zebrafish embryo model assessed as reduction in ROS expression by measuring green fluorescence intensity at 15 to 30 uM pretreated for 2 hrs followed by LPS stimulation and measured after 12 hrs by H2DCF-DA staining based fluorescence microscopy analysis; assay type: functional, organism-based; settings: dose 15-30 µM, time 14.0 hrs
BV-2 [15] = test: Antineuroinflammatory activity in LPS-induced mouse BV-2 cells assessed as suppression of iNOS expression at 20 uM preincubated for 3 hrs followed by LPS stimulation and measured after 21 hrs by Western blot analysis (reference value: 524 +/-15%); assay type: functional; settings: time 24 hrs
BV-2 [16] = test: Antineuroinflammatory activity in LPS-induced mouse BV-2 cells assessed as reduction in TNF-alpha expression at 20 uM preincubated for 3 hrs followed by LPS stimulation and measured after 21 hrs by ELISA method relative to control; assay type: functional; parameters: scale not given: the % may be the effect or the level left; settings: time 24 hrs
BV-2 [17] = test: Antineuroinflammatory activity in LPS-induced mouse BV-2 cells assessed as reduction in IL-6 expression at 5 uM preincubated for 3 hrs followed by LPS stimulation and measured after 21 hrs by ELISA method relative to control; assay type: functional; parameters: scale not given: the % may be the effect or the level left; settings: time 24 hrs
BV-2 [18] = test: Antineuroinflammatory activity in LPS-induced mouse BV-2 cells assessed as upregulation of HO-1 expression at 20 uM preincubated for 3 hrs followed by LPS stimulation and measured after 21 hrs by Western blot analysis relative to control; assay type: functional; settings: time 24 hrs
BV-2 [19] = test: Antineuroinflammatory activity in LPS-induced mouse BV-2 cells assessed as reduction in PGE2 cytokine production at 10 uM preincubated for 3 hrs followed by LPS stimulation and measured after 21 hrs by ELISA method relative to control; assay type: functional; parameters: scale not given: the % may be the effect or the level left; settings: time 24 hrs
BV-2 [20] = test: Antineuroinflammatory activity in LPS induced mouse BV-2 cells assessed as inhibition of NO production at 20 uM pretreated for 3 hrs followed by LPS addition and measured after 21 hrs by griess reagent based assay relative to control; assay type: functional; parameters: scale not given: the % may be the effect or the level left; settings: time 24 hrs
BV-2 [21] = test: Antineuroinflammatory activity in LPS-induced mouse BV-2 cells assessed as reduction in IL-6 expression at 20 uM preincubated for 3 hrs followed by LPS stimulation and measured after 21 hrs by ELISA method relative to control; assay type: functional; parameters: scale not given: the % may be the effect or the level left; settings: time 24 hrs
BV-2 [22] = test: Antineuroinflammatory activity in mouse BV-2 cells assessed as reversal of LPS-induced cell shortening measured after 24 hrs by microscope based analysis; assay type: functional
BV-2 [23] = test: Antineuroinflammatory activity in LPS-induced mouse BV-2 cells assessed as upregulation of CAT expression at 20 uM preincubated for 3 hrs followed by LPS stimulation and measured after 21 hrs by Western blot analysis relative to control; assay type: functional; settings: time 24 hrs
BV-2 [24] = test: Antineuroinflammatory activity in LPS-induced mouse BV-2 cells assessed as reduction in TNF-alpha expression at 5 uM preincubated for 3 hrs followed by LPS stimulation and measured after 21 hrs by ELISA method relative to control; assay type: functional; parameters: scale not given: the % may be the effect or the level left; settings: time 24 hrs
[25] = Inhibition of ROS production in LPS-induced mouse BV-2 cells as decrease in intracellular ROS production at 5 uM preincubated for 3 hrs followed by LPS stimulation and measured after 21 hrs by DCFH-DA staining based microscopic analysis relative to control; assay type: functional; settings: time 24 hrs
BV-2 [26] = test: Antineuroinflammatory activity in LPS-induced mouse BV-2 cells assessed as upregulation of Nrf2 expression at 20 uM preincubated for 3 hrs followed by LPS stimulation and measured after 21 hrs by Western blot analysis relative to control; assay type: functional; settings: time 24 hrs
BV-2 [27] = test: Inhibition of ROS production in LPS-induced mouse BV-2 cells as decrease in intracellular ROS production preincubated for 3 hrs followed by LPS stimulation and measured after 21 hrs by DCFH-DA staining based microscopic analysis relative to control; assay type: functional, cell-based; settings: dose 5-20 µM, time 24.0 hrs
BV-2 [28] = test: Antineuroinflammatory activity in LPS-induced mouse BV-2 cells assessed as suppression of p-IkappaBalpha/IkappaBalpha ratio at 20 uM preincubated for 3 hrs followed by LPS stimulation and measured after 21 hrs by Western blot analysis (reference value: 123+/-8%); assay type: functional
[29] = Antioxidant activity assessed as DPPH radical scavenging activity by absorbance based analysis; assay type: functional
BV-2 [30] = test: Antineuroinflammatory activity in LPS-induced mouse BV-2 cells assessed as suppression of COX-2 expression at 20 uM preincubated for 3 hrs followed by LPS stimulation and measured after 21 hrs by Western blot analysis (reference value: 172 +/-9%); assay type: functional; settings: time 24 hrs
BV-2 [31] = test: Antineuroinflammatory activity in LPS-induced mouse BV-2 cells assessed as suppression of TLR4 expression at 20 uM preincubated for 3 hrs followed by LPS stimulation and measured after 21 hrs by Western blot analysis (reference value: 414+/-14%); assay type: functional; settings: time 24 hrs
BV-2 [32] = test: Antineuroinflammatory activity in LPS-induced mouse BV-2 cells assessed as reduction in IL-6 expression at 10 uM preincubated for 3 hrs followed by LPS stimulation and measured after 21 hrs by ELISA method relative to control; assay type: functional; parameters: scale not given: the % may be the effect or the level left; settings: time 24 hrs
BV-2 [33] = test: Antineuroinflammatory activity in LPS-induced mouse BV-2 cells assessed as decrease in ratio of nuclear p65 to cytoplasmic p65 at 20 uM preincubated for 3 hrs followed by LPS stimulation and measured after 21 hrs by Western blot analysis relative to control; assay type: functional; parameters: scale not given: the % may be the effect or the level left
Danio rerio [34] = species: Danio rerio; test: Inhibition of LPS-induced ROS stress in Zebrafish embryo model assessed as reduction in ROS expression by measuring green fluorescence intensity at 30 uM pretreated for 2 hrs followed by LPS stimulation and measured after 12 hrs by H2DCF-DA staining based fluorescence microscopy analysis; assay type: functional, organism-based; settings: time 14.0 hrs

IC50 (BV-2 [1]): > 20 µM
SMILES: CC(=O)NCC(=O)c1c[nH]c2ccccc12
viability at 24 h, 40 µM [2]: > 98%

SMILES: O=C(O)c1cccc2nc3ccccc3nc12 [PHENAZINE-1-CARBOXYLIC ACID]
IC50 (BV-2 [1]): 8.4 µM
viability at 24 h, 40 µM [2]: > 98%

SMILES: COC(=O)c1cccc2nc3c([C@H](OC(=O)c4ccc(Br)cc4)[C@@H](C)C(=O)OC)cccc3nc12
Activity (BV-2 [3]): Toxic

EC50 [7]: 900 µM
IC50 (BV-2 [1]): 8 µM
EC50 [29]: 1900 µM
SMILES: COC(=O)[C@H](C)[C@@H](O)c1cccc2nc3c(C(=O)O)cccc3nc12
Activity (BV-2 [4]): 33%
Activity (BV-2 [5]): 34%
Activity (BV-2 [6]): Dose-Dependent Effect
inhibition at 10 µM [8]: 30%
inhibition at 20 µM [9]: 66%
Activity (BV-2 [10]): 62%
Activity (BV-2 [11]): 36%
Activity (BV-2 [12]): 38%
Activity (BV-2 [13]): Dose-Dependent Effect
inhibition (Danio rerio [14]): Active
Activity (BV-2 [15]): 303%
Activity (BV-2 [16]): 47%
Activity (BV-2 [17]): 20%
Activity (BV-2 [18]): 54%
Activity (BV-2 [19]): 47%
Activity (BV-2 [20]): 70%
Activity (BV-2 [21]): 49%
Activity (BV-2 [22]): Dose-Dependent Effect
Activity (BV-2 [23]): 10%
Activity (BV-2 [24]): 10%
viability at 24 h, 40 µM [2]: > 98%
inhibition at 5 µM [25]: 8%
Activity (BV-2 [26]): 67%
inhibition (BV-2 [27]): Dose-Dependent Effect
Activity (BV-2 [28]): 36%
Activity (BV-2 [30]): 105%
Activity (BV-2 [31]): 73%
Activity (BV-2 [32]): 38%
Activity (BV-2 [33]): 60%

SMILES: CC(=O)NCCc1c[nH]c2ccccc12 [NB-ACETYLTRYPTAMINE]
IC50 (BV-2 [1]): > 20 µM
viability at 24 h, 40 µM [2]: > 98%

IC50 (BV-2 [1]): 8.5 µM
SMILES: COC(=O)c1cccc2nc3c([C@@H](C)O)cccc3nc12
viability at 24 h, 40 µM [2]: > 98%

IC50 (BV-2 [1]): 17.4 µM
SMILES: CC(=O)NCCC(=O)Nc1cccs1
viability at 24 h, 40 µM [2]: > 98%

IC50 (BV-2 [1]): 8.4 µM
SMILES: COC(=O)C[C@@H](O)c1cccc2nc3c(C(=O)OC)cccc3nc12
viability at 24 h, 40 µM [2]: > 98%

IC50 (BV-2 [1]): > 20 µM
SMILES: CC(=O)OC[C@H]1O[C@@H](n2cnc3c(N)ncnc32)[C@H](O)[C@@H]1O
viability at 24 h, 40 µM [2]: > 98%

IC50 (BV-2 [1]): > 20 µM
SMILES: CC(C)C[C@@H]1NC(=O)[C@H](Cc2c[nH]c3ccccc23)NC1=O
viability at 24 h, 40 µM [2]: > 98%

SMILES: O=C1N[C@@H](Cc2c[nH]c3ccccc23)C(=O)N2CCC[C@@H]12 [BREVIANAMIDE F]
IC50 (BV-2 [1]): > 20 µM
viability at 24 h, 40 µM [2]: > 98%

SMILES: O=c1c(O)c(-c2ccc(O)c(O)c2)oc2cc(O)cc(O)c12 [QUERCETIN]
IC50 (BV-2 [1]): 9.8 µM

IC50 (BV-2 [1]): > 20 µM
SMILES: CSc1nc(NC/C=C(/C)CO)c2ncn([C@@H]3O[C@H](COC(C)=O)[C@@H](O)[C@H]3O)c2n1
viability at 24 h, 40 µM [2]: > 98%

IC50 (BV-2 [1]): 8.3 µM
SMILES: COC(=O)c1cccc2nc3c([C@H](O)[C@@H](C)C(=O)OC)cccc3nc12
viability at 24 h, 40 µM [2]: > 98%

IC50 (BV-2 [1]): 19.5 µM
SMILES: O=C(O)c1ccc[nH]1
viability at 24 h, 40 µM [2]: > 98%

SMILES: C[C@@H]1C[C@H]2[C@@H]3CCC4=CC(=O)C=C[C@]4(C)[C@@]3(F)[C@@H](O)C[C@]2(C)[C@@]1(O)C(=O)CO
inhibition (Danio rerio [34]): inactive

IC50 (BV-2 [1]): > 20 µM
SMILES: O=C1CCCCN1Cc1ccco1
viability at 24 h, 40 µM [2]: > 98%

IC50 (BV-2 [1]): 7.5 µM
SMILES: CSC(=N)N

IC50 (BV-2 [1]): > 20 µM
SMILES: O=C1CCCN1Cc1ccco1
viability at 24 h, 40 µM [2]: > 98%

IC50 (BV-2 [1]): 8.6 µM
SMILES: COC(=O)c1cccc2nc3ccccc3nc12
viability at 24 h, 40 µM [2]: > 98%

IC50 (BV-2 [1]): 8.2 µM
SMILES: COC(=O)c1cccc2nc3c([C@H](O)[C@H](C)C(=O)OC)cccc3nc12
viability at 24 h, 40 µM [2]: > 98%

SMILES: COC(=O)c1cc2c([nH]c3ccccc32)c(-c2ccc(CO)o2)n1
Activity (BV-2 [3]): Toxic
